# Tested on: Ad2 variant pre-mRNAs spliced in HeLa S3 nuclear extracts
# Test: In vitro splicing assay (IVS), RT-qPCR of spliced product
# Format: biochemical
# Details: Ad2.1 pre-mRNA substrate; geometric mean; read-out: qPCR-IVS-ATS GMean IC50 (nM) Ad2.1
# Procedure, shortened: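 Ad2 variant pre-mRNA (2 ng) with FTZΔi control RNA in HeLa S3 nuclear extract (8 μg) was pre-incubated with compound or DMSO for 15 min at 30 °C. Splicing ran 90 min at 30 °C after adding 0.5 mM ATP, creatine phosphate and MgCl2. Spliced product was quantified by TaqMan RT-qPCR, normalized to DMSO, and curve-fitted.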
row,Compound,IC50 [nM]
1,C/C(=C\c1ccnc(N2CCOCC2)c1)[C@H]1OC(=O)C[C@H](O)CC[C@H](C)[C@@H](OC(=O)N2CCN(C)CC2)/C=C/[C@@H]1C [Compound 6],> 25000
2,C/C(=C\c1cc(F)cc(F)c1)[C@H]1OC(=O)C[C@H](O)CC[C@H](C)[C@@H](OC(=O)N2CCN(C)CC2)/C=C/[C@@H]1C [Compound 28],8.55
3,C/C(=C\c1cc(F)c2nn(CC3CC3)nc2c1)[C@H]1OC(=O)C[C@H](O)CC[C@H](C)[C@@H](OC(=O)N2CCN(C)CC2)/C=C/[C@@H]1C [Compound 138],> 25000
4,C/C(=C\c1cccc2c1c(C)nn2C)[C@H]1OC(=O)C[C@H](O)CC[C@H](C)[C@@H](OC(=O)N2CCN(C)CC2)/C=C/[C@@H]1C [Compound 97],> 25000
5,C/C(=C\c1cc(Cl)cc(N2CCOCC2)c1)[C@H]1OC(=O)C[C@H](O)CC[C@H](C)[C@@H](OC(=O)N2CCN(C)CC2)/C=C/[C@@H]1C [Compound 20],61.3
6,COc1ccc(S(=O)(=O)N2CCN(c3cc(F)cc(/C=C(\C)[C@H]4OC(=O)C[C@H](O)CC[C@H](C)[C@@H](OC(=O)N5CCN(C)CC5)/C=C/[C@@H]4C)c3)CC2)cc1 [Compound 110],142

# Same assay, conditions: Ad2.2 pre-mRNA substrate; geometric mean; read-out: qPCR-IVS-ATS GMean IC50 (nM) Ad2.2
row,Compound,IC50 [nM]
1,C/C(=C\c1ccnc(N2CCOCC2)c1)[C@H]1OC(=O)C[C@H](O)CC[C@H](C)[C@@H](OC(=O)N2CCN(C)CC2)/C=C/[C@@H]1C [Compound 6],75.3
2,C/C(=C\c1cc(F)cc(F)c1)[C@H]1OC(=O)C[C@H](O)CC[C@H](C)[C@@H](OC(=O)N2CCN(C)CC2)/C=C/[C@@H]1C [Compound 28],61.5
3,C/C(=C\c1cc(F)c2nn(CC3CC3)nc2c1)[C@H]1OC(=O)C[C@H](O)CC[C@H](C)[C@@H](OC(=O)N2CCN(C)CC2)/C=C/[C@@H]1C [Compound 138],57.5
4,C/C(=C\c1cccc2c1c(C)nn2C)[C@H]1OC(=O)C[C@H](O)CC[C@H](C)[C@@H](OC(=O)N2CCN(C)CC2)/C=C/[C@@H]1C [Compound 97],2890
5,C/C(=C\c1cc(Cl)cc(N2CCOCC2)c1)[C@H]1OC(=O)C[C@H](O)CC[C@H](C)[C@@H](OC(=O)N2CCN(C)CC2)/C=C/[C@@H]1C [Compound 20],40.3
6,COc1ccc(S(=O)(=O)N2CCN(c3cc(F)cc(/C=C(\C)[C@H]4OC(=O)C[C@H](O)CC[C@H](C)[C@@H](OC(=O)N5CCN(C)CC5)/C=C/[C@@H]4C)c3)CC2)cc1 [Compound 110],63.2

# Tested on: not given
# Test: not given
# Details: in vivo; cited from earlier work
row,Compound,plasma half-life
1,tremelimumab,approximately 22 days

# Tested on: NCI-H1568 cells (high MCL1)
# Test: Cell proliferation and viability, CellTiter-Glo, 72 hours
# Format: cell-based
# Details: NCI-H1568, 72 h, read-out: CTGlo-ATS GMean GI50 (nM) 72 h NCIH1568.1, NCIH1568.1 cells, 72 h; geometric mean
# Procedure, shortened: (§1)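 Cells grown in RPMI-1640 with 10% FBS (Panc 05.04 with added insulin, 15% FBS total) were exposed to an 11-point half-log dilution, typically 10 μM–100 pM, at 0.1% DMSO for 72 h at 37 °C. ATP content was read by CellTiter-Glo luminescence. Percent inhibition was set against a time-zero plate and DMSO vehicle wells, on a −100% (cidal) to 100% (uninhibited growth) scale.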
row,Compound,GI50 [nM]
1,C/C(=C\c1cc(F)cc(F)c1)[C@H]1OC(=O)C[C@H](O)CC[C@H](C)[C@@H](OC(=O)N2CCN(C)CC2)/C=C/[C@@H]1C [Compound 28],89.6

# Same assay, conditions: NCI-H1568, read-out: CTGlo-ATS GMean GI50 (nM) 72 h NCIH1568.1; NCIH1568.1 cells, 72 h; geometric mean
row,Compound,GI50 [nM]
1,C/C(=C\c1ccnc(N2CCOCC2)c1)[C@H]1OC(=O)C[C@H](O)CC[C@H](C)[C@@H](OC(=O)N2CCN(C)CC2)/C=C/[C@@H]1C [Compound 6],29.1
2,C/C(=C\c1cc(F)c2nn(CC3CC3)nc2c1)[C@H]1OC(=O)C[C@H](O)CC[C@H](C)[C@@H](OC(=O)N2CCN(C)CC2)/C=C/[C@@H]1C [Compound 138],70.3
3,C/C(=C\c1cccc2c1c(C)nn2C)[C@H]1OC(=O)C[C@H](O)CC[C@H](C)[C@@H](OC(=O)N2CCN(C)CC2)/C=C/[C@@H]1C [Compound 97],4370
4,C/C(=C\c1cc(Cl)cc(N2CCOCC2)c1)[C@H]1OC(=O)C[C@H](O)CC[C@H](C)[C@@H](OC(=O)N2CCN(C)CC2)/C=C/[C@@H]1C [Compound 20],17.6
5,COc1ccc(S(=O)(=O)N2CCN(c3cc(F)cc(/C=C(\C)[C@H]4OC(=O)C[C@H](O)CC[C@H](C)[C@@H](OC(=O)N5CCN(C)CC5)/C=C/[C@@H]4C)c3)CC2)cc1 [Compound 110],40.9

# Same assay, conditions: NCIH1568.1 cells, 72 h; −100% cidal, 0% static, 100% maximal growth
row,Compound,CTGlo-ATS Mean MinResponse % 72 h NCIH1568.1 [%]
1,C/C(=C\c1ccnc(N2CCOCC2)c1)[C@H]1OC(=O)C[C@H](O)CC[C@H](C)[C@@H](OC(=O)N2CCN(C)CC2)/C=C/[C@@H]1C [Compound 6],−17.149
2,C/C(=C\c1cc(F)cc(F)c1)[C@H]1OC(=O)C[C@H](O)CC[C@H](C)[C@@H](OC(=O)N2CCN(C)CC2)/C=C/[C@@H]1C [Compound 28],−39.539
3,C/C(=C\c1cc(F)c2nn(CC3CC3)nc2c1)[C@H]1OC(=O)C[C@H](O)CC[C@H](C)[C@@H](OC(=O)N2CCN(C)CC2)/C=C/[C@@H]1C [Compound 138],−80.330
4,C/C(=C\c1cccc2c1c(C)nn2C)[C@H]1OC(=O)C[C@H](O)CC[C@H](C)[C@@H](OC(=O)N2CCN(C)CC2)/C=C/[C@@H]1C [Compound 97],11.801
5,C/C(=C\c1cc(Cl)cc(N2CCOCC2)c1)[C@H]1OC(=O)C[C@H](O)CC[C@H](C)[C@@H](OC(=O)N2CCN(C)CC2)/C=C/[C@@H]1C [Compound 20],−68.668
6,COc1ccc(S(=O)(=O)N2CCN(c3cc(F)cc(/C=C(\C)[C@H]4OC(=O)C[C@H](O)CC[C@H](C)[C@@H](OC(=O)N5CCN(C)CC5)/C=C/[C@@H]4C)c3)CC2)cc1 [Compound 110],−93.755

# Tested on: Panc 05.04 cells (SF3b K700E mutant)
# Test: as above
# Format: cell-based
# Details: PANC0504.1 cells, 72 h; −100% cidal, 0% static, 100% maximal growth
# Procedure, shortened: as §1
row,Compound,CTGlo-ATS Mean MinResponse % 72 h PANC0504.1 [%]
1,C/C(=C\c1ccnc(N2CCOCC2)c1)[C@H]1OC(=O)C[C@H](O)CC[C@H](C)[C@@H](OC(=O)N2CCN(C)CC2)/C=C/[C@@H]1C [Compound 6],−88.664
2,C/C(=C\c1cc(F)cc(F)c1)[C@H]1OC(=O)C[C@H](O)CC[C@H](C)[C@@H](OC(=O)N2CCN(C)CC2)/C=C/[C@@H]1C [Compound 28],−41.132
3,C/C(=C\c1cc(F)c2nn(CC3CC3)nc2c1)[C@H]1OC(=O)C[C@H](O)CC[C@H](C)[C@@H](OC(=O)N2CCN(C)CC2)/C=C/[C@@H]1C [Compound 138],−85.916
4,C/C(=C\c1cccc2c1c(C)nn2C)[C@H]1OC(=O)C[C@H](O)CC[C@H](C)[C@@H](OC(=O)N2CCN(C)CC2)/C=C/[C@@H]1C [Compound 97],46.987
5,C/C(=C\c1cc(Cl)cc(N2CCOCC2)c1)[C@H]1OC(=O)C[C@H](O)CC[C@H](C)[C@@H](OC(=O)N2CCN(C)CC2)/C=C/[C@@H]1C [Compound 20],−78.467
6,COc1ccc(S(=O)(=O)N2CCN(c3cc(F)cc(/C=C(\C)[C@H]4OC(=O)C[C@H](O)CC[C@H](C)[C@@H](OC(=O)N5CCN(C)CC5)/C=C/[C@@H]4C)c3)CC2)cc1 [Compound 110],−74.667

# Same assay, conditions: Panc 05.04, 72 h, read-out: CTGlo-ATS GMean GI50 (nM) 72 h PANC0504.1, PANC0504.1 cells, 72 h; geometric mean
row,Compound,GI50 [nM]
1,C/C(=C\c1cc(F)cc(F)c1)[C@H]1OC(=O)C[C@H](O)CC[C@H](C)[C@@H](OC(=O)N2CCN(C)CC2)/C=C/[C@@H]1C [Compound 28],42.9

# Same assay, conditions: Panc 05.04, read-out: CTGlo-ATS GMean GI50 (nM) 72 h PANC0504.1; PANC0504.1 cells, 72 h; geometric mean
row,Compound,GI50 [nM]
1,C/C(=C\c1ccnc(N2CCOCC2)c1)[C@H]1OC(=O)C[C@H](O)CC[C@H](C)[C@@H](OC(=O)N2CCN(C)CC2)/C=C/[C@@H]1C [Compound 6],15.7
2,C/C(=C\c1cc(F)c2nn(CC3CC3)nc2c1)[C@H]1OC(=O)C[C@H](O)CC[C@H](C)[C@@H](OC(=O)N2CCN(C)CC2)/C=C/[C@@H]1C [Compound 138],120
3,C/C(=C\c1cccc2c1c(C)nn2C)[C@H]1OC(=O)C[C@H](O)CC[C@H](C)[C@@H](OC(=O)N2CCN(C)CC2)/C=C/[C@@H]1C [Compound 97],9140
4,C/C(=C\c1cc(Cl)cc(N2CCOCC2)c1)[C@H]1OC(=O)C[C@H](O)CC[C@H](C)[C@@H](OC(=O)N2CCN(C)CC2)/C=C/[C@@H]1C [Compound 20],14.6
5,COc1ccc(S(=O)(=O)N2CCN(c3cc(F)cc(/C=C(\C)[C@H]4OC(=O)C[C@H](O)CC[C@H](C)[C@@H](OC(=O)N5CCN(C)CC5)/C=C/[C@@H]4C)c3)CC2)cc1 [Compound 110],41.8

# Biological target: T1, SF3b complexes (Homo sapiens, UniProt O75533+Q7RTV0)
# T1 construct: endogenous in cells; host or cells: Nuclear extracts; A HeLa S3 extract preparation is described for the in vitro splicing assay
# Test: Scintillation proximity assay (SPA) with [3H]-labelled pladienolide probe
# Format: binding
# Details: SF3B1 (WT); geometric mean; read-out: SPA-ATS GMean IC50 (nM) SF3B1 (WT)
# Procedure, shortened: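 SF3b complexes captured from nuclear extracts on anti-SF3B1 antibody SPA beads; test compounds pre-incubated 30 min before 2.5 nM [3H]-pladienolide probe added, then 30 min incubation. Bound probe read by scintillation; values from non-linear regression of concentration–response curves.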
row,Compound,IC50 [nM]
1,C/C(=C\c1ccnc(N2CCOCC2)c1)[C@H]1OC(=O)C[C@H](O)CC[C@H](C)[C@@H](OC(=O)N2CCN(C)CC2)/C=C/[C@@H]1C [Compound 6],8.85
2,C/C(=C\c1cc(F)cc(F)c1)[C@H]1OC(=O)C[C@H](O)CC[C@H](C)[C@@H](OC(=O)N2CCN(C)CC2)/C=C/[C@@H]1C [Compound 28],10.1
3,C/C(=C\c1cc(F)c2nn(CC3CC3)nc2c1)[C@H]1OC(=O)C[C@H](O)CC[C@H](C)[C@@H](OC(=O)N2CCN(C)CC2)/C=C/[C@@H]1C [Compound 138],8.7
4,C/C(=C\c1cccc2c1c(C)nn2C)[C@H]1OC(=O)C[C@H](O)CC[C@H](C)[C@@H](OC(=O)N2CCN(C)CC2)/C=C/[C@@H]1C [Compound 97],240
5,C/C(=C\c1cc(Cl)cc(N2CCOCC2)c1)[C@H]1OC(=O)C[C@H](O)CC[C@H](C)[C@@H](OC(=O)N2CCN(C)CC2)/C=C/[C@@H]1C [Compound 20],7.76
6,COc1ccc(S(=O)(=O)N2CCN(c3cc(F)cc(/C=C(\C)[C@H]4OC(=O)C[C@H](O)CC[C@H](C)[C@@H](OC(=O)N5CCN(C)CC5)/C=C/[C@@H]4C)c3)CC2)cc1 [Compound 110],42.1
